These results are taken from patent US8198273B2, “Compounds and methods for kinase modulation, and indications therefor” (Plexxikon Inc., priority 2009, dated 2012).

One data set addresses T1, A-Raf (Homo sapiens, UniProt P10398).
T1 sequence (P10398 1-606): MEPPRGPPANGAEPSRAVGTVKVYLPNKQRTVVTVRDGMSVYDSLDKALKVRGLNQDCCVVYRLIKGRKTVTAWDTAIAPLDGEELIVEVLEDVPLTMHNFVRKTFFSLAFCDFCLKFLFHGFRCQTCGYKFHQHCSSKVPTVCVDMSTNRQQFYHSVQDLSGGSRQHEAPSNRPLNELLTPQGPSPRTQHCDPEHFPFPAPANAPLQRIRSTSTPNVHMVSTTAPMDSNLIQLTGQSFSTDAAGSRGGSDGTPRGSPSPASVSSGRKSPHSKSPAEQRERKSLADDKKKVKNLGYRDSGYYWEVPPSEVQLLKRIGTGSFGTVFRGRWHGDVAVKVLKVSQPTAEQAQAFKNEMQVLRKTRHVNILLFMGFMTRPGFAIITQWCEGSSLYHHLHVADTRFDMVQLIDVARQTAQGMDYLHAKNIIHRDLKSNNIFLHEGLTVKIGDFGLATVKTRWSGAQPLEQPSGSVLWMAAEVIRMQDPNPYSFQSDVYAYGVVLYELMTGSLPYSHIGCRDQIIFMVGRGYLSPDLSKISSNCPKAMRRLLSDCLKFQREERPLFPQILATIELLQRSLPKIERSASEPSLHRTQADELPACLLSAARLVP
Nature of the data set: A-Raf biochemical kinase inhibition (AlphaScreen, biotin-MEK1 substrate). As to conditions: 100 μM ATP. In outline:
(§1)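 IC50 derived from AlphaScreen signal plotted against compound concentration. Final ATP 100 μM; 3 h incubation at room temperature. Eight-point 3-fold dilution series prepared from a 0.1 mM DMSO stock.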
(In Alpha technology, singlet oxygen from a donor bead excites a nearby acceptor bead.)

Another data set deals with B-Raf (Homo sapiens, UniProt P15056). The experiment in a line: B-Raf biochemical kinase inhibition (AlphaScreen, biotin-MEK1 substrate). As to conditions: 100 μM ATP. In outline: as §1
Chain of B-Raf (P15056 whole entry): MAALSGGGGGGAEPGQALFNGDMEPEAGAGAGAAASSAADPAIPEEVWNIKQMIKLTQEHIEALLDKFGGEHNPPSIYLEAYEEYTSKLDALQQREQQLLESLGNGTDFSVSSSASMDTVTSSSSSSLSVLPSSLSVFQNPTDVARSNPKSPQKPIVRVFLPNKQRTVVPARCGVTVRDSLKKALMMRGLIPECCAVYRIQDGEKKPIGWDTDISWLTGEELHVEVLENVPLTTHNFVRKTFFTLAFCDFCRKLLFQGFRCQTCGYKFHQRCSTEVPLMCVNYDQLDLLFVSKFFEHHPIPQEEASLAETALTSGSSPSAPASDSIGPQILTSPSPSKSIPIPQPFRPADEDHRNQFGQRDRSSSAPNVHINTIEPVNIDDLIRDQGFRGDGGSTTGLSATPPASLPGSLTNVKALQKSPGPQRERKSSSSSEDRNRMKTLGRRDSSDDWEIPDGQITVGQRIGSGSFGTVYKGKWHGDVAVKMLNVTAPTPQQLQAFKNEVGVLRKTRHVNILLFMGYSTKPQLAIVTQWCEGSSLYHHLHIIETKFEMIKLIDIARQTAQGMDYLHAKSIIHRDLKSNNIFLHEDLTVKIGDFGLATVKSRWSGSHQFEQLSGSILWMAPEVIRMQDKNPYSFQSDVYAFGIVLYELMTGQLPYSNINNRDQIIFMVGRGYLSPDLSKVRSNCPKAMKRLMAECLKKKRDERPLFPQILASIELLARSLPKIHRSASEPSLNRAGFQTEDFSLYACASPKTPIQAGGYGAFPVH
In a further data set the test system is Colo205 xenograft. The experiment in a line: Colo205 xenograft mouse model, tumor growth inhibition. The data set is classed as in vivo. The note with it: COLO 205, 336 h, female nu/nu mice, 10 mg/kg daily for fourteen days. As for the experimental part: Tumor growth is monitored to approximately 100 mg size, and mice are distributed to treatment groups such that the mean tumor burden within a group is within 10% of the overall mean tumor burden. […] Mice are observed daily, with tumor burden and body weights measured twice a week. Animals with tumor burden above 1500-2000 mg and any animals in moribund condition are euthanized. The average tumor growth of vehicle control group mice is compared to the average tumor growth of the test compound mice. Percent tumor growth inhibition is calculated as 100×[(tumor growth control-tumor growth test compound)/tumor growth control].

A short description of data set [1]: Relative solubility by turbidity in aqueous buffers of varying pH. It counts as physicochemical. The note with it: for turbidity threshold (L, M, H) 7.4: HEPES pH 7.4; for turbidity threshold (L, M, H) 4.5: SIF pH 4.5; for turbidity threshold (L, M, H) 6.8: SIF pH 6.8; for turbidity threshold (L, M, H) 1.4: buffer pH 1.4 (SGF). In outline: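 Turbidity endpoint: concentration where optical density at 490, 535 and 650 nm exceeds 0.01, three-wavelength average used. Buffers at pH 1.5, 4.5, 6.8 and 7.4; DMSO serial dilutions of 25 mM stock spiked 1 μL into 99 μL buffer. Low <31.3, moderate 31.3–250, high >250 μM.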

The target of another data set is CYP3A4(BFC) (Homo sapiens, UniProt P08684). The experiment in a line: CYP3A4(BFC) inhibition (fluorescent substrate). The data set is classed as in vitro ADME. The note with it: read-out: Cyp IC50 3A4(BFC). The gist of the method:
(§2)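 Inhibition was followed as loss of fluorescent metabolite from a known substrate, with compound in co-factor mix as a 10-point 1:1 serial dilution (100 mM DMSO stock).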

In another data set the target is CYP3A4(BQ) (Homo sapiens, UniProt P08684). The experiment in a line: CYP3A4(BQ) inhibition (fluorescent substrate). It counts as in vitro ADME. The note with it: read-out: Cyp IC50 3A4(BQ). In outline: as §2
Chain of CYP3A4(BQ) (P08684 whole entry): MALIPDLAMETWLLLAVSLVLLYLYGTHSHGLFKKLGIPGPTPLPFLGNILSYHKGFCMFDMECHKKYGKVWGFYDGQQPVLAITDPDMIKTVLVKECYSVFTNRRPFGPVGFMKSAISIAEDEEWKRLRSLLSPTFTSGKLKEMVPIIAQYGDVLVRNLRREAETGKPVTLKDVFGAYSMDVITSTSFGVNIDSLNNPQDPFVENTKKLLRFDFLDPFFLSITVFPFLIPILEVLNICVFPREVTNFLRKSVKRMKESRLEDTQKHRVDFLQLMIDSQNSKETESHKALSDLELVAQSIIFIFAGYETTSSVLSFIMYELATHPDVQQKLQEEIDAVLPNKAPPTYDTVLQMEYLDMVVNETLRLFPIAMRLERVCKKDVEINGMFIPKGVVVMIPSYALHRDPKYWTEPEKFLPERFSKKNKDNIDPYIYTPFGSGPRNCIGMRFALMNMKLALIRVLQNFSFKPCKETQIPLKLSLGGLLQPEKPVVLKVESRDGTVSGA
In the next data set the target is c-Raf-1 (Homo sapiens, UniProt P04049). Nature of the data set: c-Raf-1 biochemical kinase inhibition (AlphaScreen, biotin-MEK1 substrate). The note with it: 100 μM ATP. In outline:
as §1

Each structure is given as a SMILES string. pIC50: −log10 of the molar value.

Chain of c-Raf-1 (P04049 whole entry): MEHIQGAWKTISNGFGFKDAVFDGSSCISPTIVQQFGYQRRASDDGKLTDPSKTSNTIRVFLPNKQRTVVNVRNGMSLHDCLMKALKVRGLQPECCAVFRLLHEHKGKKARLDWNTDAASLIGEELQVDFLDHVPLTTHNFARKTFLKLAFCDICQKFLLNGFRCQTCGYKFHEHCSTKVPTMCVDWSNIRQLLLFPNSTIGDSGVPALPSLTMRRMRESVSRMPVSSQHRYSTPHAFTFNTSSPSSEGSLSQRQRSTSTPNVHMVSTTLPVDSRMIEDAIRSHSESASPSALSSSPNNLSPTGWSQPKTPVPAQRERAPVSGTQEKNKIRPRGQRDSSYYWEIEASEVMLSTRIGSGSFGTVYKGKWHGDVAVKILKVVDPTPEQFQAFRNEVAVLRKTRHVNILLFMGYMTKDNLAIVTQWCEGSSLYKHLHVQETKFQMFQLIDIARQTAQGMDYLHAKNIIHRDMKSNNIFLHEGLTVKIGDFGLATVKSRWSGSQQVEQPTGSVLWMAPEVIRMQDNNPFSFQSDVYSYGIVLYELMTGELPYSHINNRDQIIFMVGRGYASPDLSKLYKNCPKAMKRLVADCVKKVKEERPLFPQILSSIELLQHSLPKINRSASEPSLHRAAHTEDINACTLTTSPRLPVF
Chain of CYP3A4(BFC) (P08684 whole entry): as the sequence (P08684 whole entry) above

As for `N#Cc1cnc2[nH]cc(C(=O)c3c(F)ccc(NS(=O)(=O)c4ccccc4F)c3F)c2c1` [P-2011, N-[3-(5-Cyano-1H-pyrrolo[2,3-b]pyridine-3-carbonyl)-2,4-difluoro-phenyl]-2-fluoro-benzenesulfonamide], the negative-log IC50 (pIC50) (usually the negative decadic logarithm of the IC50, by convention in mol/L) is > 8.00 against A-Raf, > 7.00 on B-Raf, < 5.00 on CYP3A4(BFC) and < 5.00 on CYP3A4(BQ). In the data set on Colo205 xenograft, the inhibition in vivo (commonly the percentage by which the read-out fell short of the control) at 10 mg/kg was found to be 72%. Also, the “turbidity threshold (L, M, H) 7.4” value in data set [1] is “M (moderate solubility if the threshold concentration is 31.3 μM to 250 μM)”. For the same molecule, the “turbidity threshold (L, M, H) 4.5” value in data set [1] was “M (moderate solubility if the threshold concentration is 31.3 μM to 250 μM)”. Moreover, in data set [1], the “turbidity threshold (L, M, H) 6.8” value is recorded as “M (moderate solubility if the threshold concentration is 31.3 μM to 250 μM)”. In addition, the “turbidity threshold (L, M, H) 1.4” value in data set [1] was “M (moderate solubility if the threshold concentration is 31.3 μM to 250 μM)”.
With `Cc1cnc2[nH]cc(C(=O)c3c(F)ccc(NS(=O)(=O)c4cc(F)ccc4F)c3F)c2c1` [P-2015, N-[2,4-Difluoro-3-(5-methyl-1H-pyrrolo[2,3-b]pyridine-3-carbonyl)-phenyl]-2,5-difluoro-benzenesulfonamide], the pIC50 on A-Raf was > 8.00; at B-Raf, > 7.00; on c-Raf-1, > 8.00; on CYP3A4(BFC) it was < 5.00; at CYP3A4(BQ), < 5.00. The molecule also yielded an inhibition in vivo at 10 mg/kg in the data set on Colo205 xenograft of 67%. In addition, the “turbidity threshold (L, M, H) 7.4” value in data set [1] was “M (moderate solubility if the threshold concentration is 31.3 μM to 250 μM)”. Besides, in data set [1], the “turbidity threshold (L, M, H) 4.5” value is on record as “L (low solubility if the threshold concentration is <31.3 04)”. Besides, in data set [1], the “turbidity threshold (L, M, H) 6.8” value is reported as “M (moderate solubility if the threshold concentration is 31.3 μM to 250 μM)”. The “turbidity threshold (L, M, H) 1.4” value in data set [1] is “M (moderate solubility if the threshold concentration is 31.3 μM to 250 μM)”.
Turning to `N#Cc1cnc2[nH]cc(C(=O)c3c(F)ccc(NS(=O)(=O)c4ccccc4)c3F)c2c1` [P-2046, N-[3-(5-Cyano-1H-pyrrolo[2,3-b]pyridine-3-carbonyl)-2,4-difluoro-phenyl]-benzenesulfonamide], the pIC50 was > 8.00 at A-Raf; > 8.00 against B-Raf; > 8.00 against c-Raf-1; < 5.00 on CYP3A4(BFC); < 5.00 at CYP3A4(BQ). This molecule also registered an inhibition in vivo at 10 mg/kg in the data set on Colo205 xenograft of 70%. Further, the “turbidity threshold (L, M, H) 7.4” value in data set [1] is “M (moderate solubility if the threshold concentration is 31.3 μM to 250 μM)”. Further, the “turbidity threshold (L, M, H) 4.5” value in data set [1] is on record as “L (low solubility if the threshold concentration is <31.3 04)”. Besides, the “turbidity threshold (L, M, H) 6.8” value in data set [1] is “M (moderate solubility if the threshold concentration is 31.3 μM to 250 μM)”. Moreover, the “turbidity threshold (L, M, H) 1.4” value in data set [1] is given as “L (low solubility if the threshold concentration is <31.3 04)”.
On to `N#Cc1cnc2[nH]cc(C(=O)c3cccc(NS(=O)(=O)c4ccccc4)c3F)c2c1` [P-2056, N-[3-(5-Cyano-1H-pyrrolo[2,3-b]pyridine-3-carbonyl)-2-fluoro-phenyl]-benzenesulfonamide], for which the pIC50 at A-Raf is > 8.00; against B-Raf it was > 7.00; on c-Raf-1, > 8.00; on CYP3A4(BFC), < 5.00; on CYP3A4(BQ), < 5.00. Further, testing at 10 mg/kg in the data set on Colo205 xenograft gave an inhibition in vivo of 66%. Further, in data set [1], the “turbidity threshold (L, M, H) 7.4” value is listed as “M (moderate solubility if the threshold concentration is 31.3 μM to 250 μM)”. The “turbidity threshold (L, M, H) 4.5” value in data set [1] is “L (low solubility if the threshold concentration is <31.3 04)”. The “turbidity threshold (L, M, H) 6.8” value in data set [1] is on record as “M (moderate solubility if the threshold concentration is 31.3 μM to 250 μM)”. Besides, in data set [1], the “turbidity threshold (L, M, H) 1.4” value is given as “L (low solubility if the threshold concentration is <31.3 04)”.
Consider `Cc1cnc2[nH]cc(C(=O)c3c(F)ccc(NS(=O)(=O)c4cccnc4)c3F)c2c1` [P-2069, Pyridine-3-sulfonic acid [2,4-difluoro-3-(5-methyl-1H-pyrrolo[2,3-b]pyridine-3-carbonyl)-phenyl]-amide], for which the pIC50 on A-Raf is > 7.00; against B-Raf, > 8.00; at c-Raf-1, > 8.00; on CYP3A4(BFC), > 5.30; on CYP3A4(BQ), > 5.30. This molecule also showed an inhibition in vivo at 10 mg/kg in the data set with Colo205 xenograft of 29%. The “turbidity threshold (L, M, H) 7.4” value in data set [1] is reported as “H (high solubility if the threshold concentration is >250 μM)”. Besides, the “turbidity threshold (L, M, H) 4.5” value in data set [1] is “M (moderate solubility if the threshold concentration is 31.3 μM to 250 μM)”. In addition, in data set [1], the “turbidity threshold (L, M, H) 6.8” value is “M (moderate solubility if the threshold concentration is 31.3 μM to 250 μM)”. The “turbidity threshold (L, M, H) 1.4” value in data set [1] is “H (high solubility if the threshold concentration is >250 μM)”.
`CCCS(=O)(=O)Nc1ccc(F)c(C(=O)c2c[nH]c3ncc(-c4cnc(N(C)C)nc4)cc23)c1F` [P-2196, Propane-1-sulfonic acid {3-[5-(2-dimethylamino-pyrimidin-5-yl)-1H-pyrrolo[2,3-b]pyridine-3-carbonyl]-2,4-difluoro-phenyl}-amide]: the pIC50 at A-Raf is > 8.00; on B-Raf it was > 8.00; on c-Raf-1, > 8.00; at CYP3A4(BFC), > 5.30; at CYP3A4(BQ), < 5.00. The molecule also yielded an inhibition in vivo at 10 mg/kg in the data set on Colo205 xenograft of 71%. Further, the “turbidity threshold (L, M, H) 7.4” value in data set [1] is “L (low solubility if the threshold concentration is <31.3 04)”. Further, the “turbidity threshold (L, M, H) 4.5” value in data set [1] is on record as “L (low solubility if the threshold concentration is <31.3 04)”. Also, the “turbidity threshold (L, M, H) 6.8” value in data set [1] was “L (low solubility if the threshold concentration is <31.3 04)”. Moreover, the “turbidity threshold (L, M, H) 1.4” value in data set [1] is given as “M (moderate solubility if the threshold concentration is 31.3 μM to 250 μM)”.
`CCCS(=O)(=O)Nc1ccc(F)c(C(=O)c2c[nH]c3ncc(-c4ccc(OCCN5CCOCC5)nc4)cc23)c1F` [P-2232, Propane-1-sulfonic acid (2,4-difluoro-3-{5-[6-(2-morpholin-4-yl-ethoxy)-pyridin-3-yl]-1H-pyrrolo[2,3-b]pyridine-3-carbonyl}-phenyl)-amide]: the pIC50 is > 8.00 against A-Raf; > 8.00 at B-Raf; > 8.00 on c-Raf-1; < 5.00 at CYP3A4(BFC); < 5.00 on CYP3A4(BQ). Also, the inhibition in vivo at 10 mg/kg in the data set on Colo205 xenograft is 54%. The “turbidity threshold (L, M, H) 7.4” value in data set [1] was “L (low solubility if the threshold concentration is <31.3 04)”. Also, in data set [1], the “turbidity threshold (L, M, H) 4.5” value is “M (moderate solubility if the threshold concentration is 31.3 μM to 250 μM)”. Moreover, the “turbidity threshold (L, M, H) 6.8” value in data set [1] is recorded as “L (low solubility if the threshold concentration is <31.3 04)”. In data set [1], the “turbidity threshold (L, M, H) 1.4” value is “M (moderate solubility if the threshold concentration is 31.3 μM to 250 μM)”.
With `CCCS(=O)(=O)Nc1ccc(F)c(C(=O)c2c[nH]c3ncc(C#CCOC)cc23)c1F` [P-2239, Propane-1-sulfonic acid {2,4-difluoro-3-[5-(3-methoxy-prop-1-ynyl)-1H-pyrrolo[2,3-b]pyridine-3-carbonyl]-phenyl}-amide], the pIC50 is > 8.00 against A-Raf; > 7.00 at B-Raf; > 8.00 against c-Raf-1; 5.00 to 5.30 on CYP3A4(BFC); 5.00 to 5.30 at CYP3A4(BQ). In addition, the inhibition in vivo at 10 mg/kg in the data set with Colo205 xenograft came to 4%. The “turbidity threshold (L, M, H) 7.4” value in data set [1] is “M (moderate solubility if the threshold concentration is 31.3 μM to 250 μM)”. In data set [1], the “turbidity threshold (L, M, H) 4.5” value is “M (moderate solubility if the threshold concentration is 31.3 μM to 250 μM)”. In addition, in data set [1], the “turbidity threshold (L, M, H) 6.8” value is “L (low solubility if the threshold concentration is <31.3 04)”. The “turbidity threshold (L, M, H) 1.4” value in data set [1] is on record as “L (low solubility if the threshold concentration is <31.3 04)”.
